Values joined by “and” are separate entries in the source; they are usually repeats but may differ in a detail not shown here. Equal entries are not always repeated. Toxic doses and inconclusive results are not listed.

For the assay, the system named is CD2F1 mice, L1210 leukemia ip, survival T/C. The assay is described as follows: NCI In Vivo Anticancer Drug Screen. Data for tumor model L1210 Leukemia (intraperitoneal) in CD2F1 (CDF1) mice. The following applies: higher = longer survival. In a few lines: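 Compound-dosed mice with transplantable tumor versus matched vehicle controls; endpoint ratio T/C reported.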

Take `NC(=O)c1cn(C2OC(CO)C(O)C2O)c2ncnc(N)c12` (stereo unspecified): the T/C is, setting by setting: (endpoint: mean survival time, dose: 0.06 mg/kg/injection, schedule: Q01DX009 (ip), vehicle: acid diluted with saline) 117 % of control; (endpoint: mean survival time, dose: 0.06 mg/kg/injection, schedule: Q01DX009 (ip), vehicle: saline) 108 % of control; (endpoint: mean survival time, dose: 0.08 mg/kg/injection, schedule: Q## X008 (ip), vehicle: carboxymethylcellulose (CMC)) 117 % of control; (endpoint: mean survival time, dose: 0.13 mg/kg/injection, schedule: Q01DX009 (ip), vehicle: saline) 120 % of control and 121 % of control; (endpoint: mean survival time, dose: 0.13 mg/kg/injection, schedule: Q03HX008 (ip), vehicle: saline) 124 % of control; (endpoint: mean survival time, dose: 0.13 mg/kg/injection, schedule: Q03HX016 (ip), vehicle: saline) 123 % of control. Besides, the T/C is 119 % of control (endpoint: mean survival time, dose: 0.13 mg/kg/injection, schedule: Q03HX024 (ip), vehicle: saline); 115 % of control (endpoint: mean survival time, dose: 0.2 mg/kg/injection, schedule: Q01DX005 (ip), vehicle: saline); 124 % of control (endpoint: mean survival time, dose: 0.25 mg/kg/injection, schedule: Q01DX005 (ip), vehicle: saline + alcohol); 122 % of control (endpoint: mean survival time, dose: 0.31 mg/kg/injection, schedule: Q## X002 (ip), vehicle: carboxymethylcellulose (CMC)); 114 % of control (endpoint: mean survival time, dose: 0.31 mg/kg/injection, schedule: Q## X008 (ip), vehicle: carboxymethylcellulose (CMC)); 123 % of control (endpoint: mean survival time, dose: 0.5 mg/kg/injection, schedule: Q01DX009 (ip), vehicle: saline sonified). For the same molecule, the T/C was 95 % of control (endpoint: mean survival time, dose: 0.5 mg/kg/injection, schedule: Q03HX024 (ip), vehicle: saline); 122 % of control (endpoint: mean survival time, dose: 0.5 mg/kg/injection, schedule: Q04DX003 (ip), vehicle: saline); 123 % of control (endpoint: mean survival time, dose: 0.63 mg/kg/injection, schedule: Q01DX001 (ip), vehicle: carboxymethylcellulose (CMC)); 124 % of control (endpoint: mean survival time, dose: 0.63 mg/kg/injection, schedule: Q## X002 (ip), vehicle: carboxymethylcellulose (CMC)); 91 % of control (endpoint: mean survival time, dose: 0.63 mg/kg/injection, schedule: Q## X008 (ip), vehicle: carboxymethylcellulose (CMC)); 115 % of control and 119 % of control (endpoint: mean survival time, dose: 1.0 mg/kg/injection, schedule: Q01DX001 (ip), vehicle: saline). Besides, the T/C runs as follows: (endpoint: mean survival time, dose: 1.0 mg/kg/injection, schedule: Q01DX007 (ip), vehicle: saline) 119 % of control; (endpoint: mean survival time, dose: 1.0 mg/kg/injection, schedule: Q01DX009 (ip), vehicle: saline sonified) 88 % of control and 95 % of control and 111 % of control; (endpoint: mean survival time, dose: 1.0 mg/kg/injection, schedule: Q01DX009 (oral), vehicle: saline) 93 % of control; (endpoint: mean survival time, dose: 1.0 mg/kg/injection, schedule: Q04DX003 (ip), vehicle: saline) 122 % of control; (endpoint: mean survival time, dose: 1.0 mg/kg/injection, schedule: Q08DX002 (ip), vehicle: saline) 117 % of control; (endpoint: mean survival time, dose: 1.25 mg/kg/injection, schedule: Q01DX001 (ip), vehicle: carboxymethylcellulose (CMC)) 121 % of control. In addition, the T/C was 114 % of control (endpoint: mean survival time, dose: 1.25 mg/kg/injection, schedule: Q## X002 (ip), vehicle: carboxymethylcellulose (CMC)); 109 % of control (endpoint: mean survival time, dose: 1.5 mg/kg/injection, schedule: Q01DX009 (ip), vehicle: saline with Tween-80); 117 % of control and 112 % of control (endpoint: mean survival time, dose: 2.0 mg/kg/injection, schedule: Q01DX001 (ip), vehicle: saline); 107 % of control (endpoint: mean survival time, dose: 2.0 mg/kg/injection, schedule: Q01DX001 (oral), vehicle: saline); 111 % of control (endpoint: mean survival time, dose: 2.0 mg/kg/injection, schedule: Q01DX009 (ip), vehicle: acid diluted with saline); 88 % of control and 93 % of control (endpoint: mean survival time, dose: 2.0 mg/kg/injection, schedule: Q01DX009 (ip), vehicle: saline sonified). The T/C is 97 % of control (endpoint: mean survival time, dose: 2.0 mg/kg/injection, schedule: Q01DX009 (oral), vehicle: saline); 119 % of control (endpoint: mean survival time, dose: 2.0 mg/kg/injection, schedule: Q08DX002 (ip), vehicle: saline); 178 % of control (endpoint: mean survival time, dose: 2.5 mg/kg/injection, schedule: Q01DX001 (ip), vehicle: carboxymethylcellulose (CMC)); 121 % of control and 124 % of control (endpoint: mean survival time, dose: 4.0 mg/kg/injection, schedule: Q01DX001 (ip), vehicle: saline); 112 % of control (endpoint: mean survival time, dose: 4.0 mg/kg/injection, schedule: Q01DX001 (oral), vehicle: saline); 93 % of control (endpoint: mean survival time, dose: 4.0 mg/kg/injection, schedule: Q01DX005 (ip), vehicle: saline + alcohol). Besides, the T/C is, setting by setting: (endpoint: mean survival time, dose: 4.0 mg/kg/injection, schedule: Q01DX009 (oral), vehicle: saline) 98 % of control; (endpoint: mean survival time, dose: 4.0 mg/kg/injection, schedule: Q04DX003 (ip), vehicle: saline) 101 % of control; (endpoint: mean survival time, dose: 4.0 mg/kg/injection, schedule: Q08DX002 (ip), vehicle: saline) 120 % of control; (endpoint: mean survival time, dose: 8.0 mg/kg/injection, schedule: Q01DX001 (ip), vehicle: saline) 113 % of control; (endpoint: mean survival time, dose: 8.0 mg/kg/injection, schedule: Q01DX001 (oral), vehicle: saline) 101 % of control; (endpoint: mean survival time, dose: 8.0 mg/kg/injection, schedule: Q08DX002 (ip), vehicle: saline) 88 % of control. Also, the T/C is 107 % of control (endpoint: mean survival time, dose: 16.0 mg/kg/injection, schedule: Q01DX001 (oral), vehicle: saline); 106 % of control (endpoint: mean survival time, dose: 125.0 micrograms/kg/injection, schedule: Q01DX006 (iv), vehicle: saline); 100 % of control (endpoint: mean survival time, dose: 125.0 micrograms/kg/injection, schedule: Q01DX Z (im), vehicle: saline); 101 % of control (endpoint: mean survival time, dose: 250.0 micrograms/kg/injection, schedule: Q01DX006 (iv), vehicle: saline); 101 % of control (endpoint: mean survival time, dose: 250.0 micrograms/kg/injection, schedule: Q01DX Z (im), vehicle: saline); 106 % of control (endpoint: mean survival time, dose: 500.0 micrograms/kg/injection, schedule: Q01DX006 (iv), vehicle: saline). For the same molecule, the T/C (endpoint: mean survival time, dose: 500.0 micrograms/kg/injection, schedule: Q01DX Z (im), vehicle: saline) was 107 % of control; the T/C (endpoint: mean survival time, dose: 1000.0 micrograms/kg/injection, schedule: Q01DX006 (iv), vehicle: saline) is 109 % of control; the T/C (endpoint: mean survival time, dose: 1000.0 micrograms/kg/injection, schedule: Q01DX Z (im), vehicle: saline) is 103 % of control; the T/C (endpoint: median survival time, dose: 2.0 mg/kg/injection, schedule: Q01DX009 (ip), vehicle: saline) was 112 % of control.
As for `ClCCN(CC#CCCCC#CCN(CCCl)CCCl)CCCl`, the T/C was 121 % of control (endpoint: mean survival time, dose: 3.12 mg/kg/injection, schedule: Q01DX009 (ip), vehicle: saline); 119 % of control and 121 % of control (endpoint: mean survival time, dose: 6.25 mg/kg/injection, schedule: Q01DX009 (ip), vehicle: saline); 162 % of control (endpoint: mean survival time, dose: 25.0 mg/kg/injection, schedule: Q01DX009 (ip), vehicle: saline); 89 % of control and 104 % of control (endpoint: mean survival time, dose: 50.0 mg/kg/injection, schedule: Q01DX009 (ip), vehicle: saline).
On to `CC(=O)OC1CC2C=CCC21` (stereo unspecified), for which the T/C was 100 % of control (endpoint: mean survival time, dose: 100.0 mg/kg/injection, schedule: Q01DX001 (ip), vehicle: saline with Tween-80); 96 % of control (endpoint: mean survival time, dose: 200.0 mg/kg/injection, schedule: Q01DX001 (ip), vehicle: saline with Tween-80); 96 % of control (endpoint: mean survival time, dose: 400.0 mg/kg/injection, schedule: Q01DX001 (ip), vehicle: saline with Tween-80).
Regarding `CC1=C/C(=C/c2ccccc2)CC(C)(C)C1` (tested in a mixture with another compound), the T/C is 105 % of control (endpoint: mean survival time, dose: 25.0 mg/kg/injection, schedule: Q01DX009 (ip), vehicle: saline with Tween-80); 103 % of control (endpoint: mean survival time, dose: 50.0 mg/kg/injection, schedule: Q01DX009 (ip), vehicle: saline with Tween-80); 95 % of control (endpoint: mean survival time, dose: 100.0 mg/kg/injection, schedule: Q01DX009 (ip), vehicle: saline with Tween-80); 100 % of control (endpoint: mean survival time, dose: 100.0 mg/kg/injection, schedule: Q04DX003 (ip), vehicle: saline with Tween-80).
Consider `COc1ccc(C(=O)/C(C)=C(/C)NCCC#N)c(OCc2ccccc2)c1OC`, for which the T/C (endpoint: mean survival time, dose: 12.5 mg/kg/injection, schedule: Q01DX009 (ip), vehicle: other) was 97 % of control; the T/C (endpoint: mean survival time, dose: 25.0 mg/kg/injection, schedule: Q01DX009 (ip), vehicle: other) is 97 % of control; the T/C (endpoint: mean survival time, dose: 50.0 mg/kg/injection, schedule: Q01DX009 (ip), vehicle: other) is 97 % of control; the T/C (endpoint: mean survival time, dose: 100.0 mg/kg/injection, schedule: Q01DX009 (ip), vehicle: other) was 95 % of control; the T/C (endpoint: mean survival time, dose: 200.0 mg/kg/injection, schedule: Q01DX009 (ip), vehicle: other) was 104 % of control.
As for `O=C(O)c1cc2ccccc2s1`, the T/C reads like this: (endpoint: mean survival time, dose: 100.0 mg/kg/injection, schedule: Q01DX001 (ip), vehicle: saline) 98 % of control; (endpoint: mean survival time, dose: 200.0 mg/kg/injection, schedule: Q01DX001 (ip), vehicle: saline) 96 % of control; (endpoint: mean survival time, dose: 400.0 mg/kg/injection, schedule: Q01DX001 (ip), vehicle: saline) 92 % of control.

These data come from PubChem BioAssay AID256 (DTP/NCI, 2004).
